Target: c-Met kinase (h-Met; histidine-tagged c-Met catalytic domain fusion protein) (Homo sapiens (Human), UniProt P08581)
Assay: In Vitro c-Met Kinase Enzyme Assays
Type: biochemical
Details: phosphorylation of poly Glu-Tyr, 5 μM ATP, 25 minutes at 30° C.
Experimental: Compounds were screened in vitro for their ability to inhibit c-Met kinase activity. […] Briefly, histidine-tagged c-Met catalytic domain fusion protein (Invitrogen, #PV3143) was used for the assay. […] The reaction lasted for 25 minutes at 30° C. After the reaction was completed, the contents of the plates was discarded. Plates were then washed with TBS-T (250 μL/well, 5×) and then blocked with TBS-T containing 1% BSA for 2 hours. The contents of the plates was discarded, and 100 μL (per well) of peroxidase-labeled anti-phospho-tyrosine antibody (Sigma, #A5964) diluted (1:60,000) in 1% BSA containing TBS-T were then added and incubated for 1 hour. Plates were washed with TBS-T ([…], 5×) and followed by the color reaction using 100 μL (1:1 mixture) of H2O2 and tetramethylbenzidine (R&D Systems, #DY999). The reaction was stopped in minutes with 100 μL of 2 N H2SO4. The optical density was measured immediately using a microplate reader at 450 nm with wavelength correction at 540 nm. IC50 values were calculated with the GraphPad Prism software. The linear range (i.e., the time period over which the rate remained equivalent to the initial rate) was determined for the kinase and IC50 determinations were performed within this range.

Sequence of c-Met kinase (h-Met; histidine-tagged c-Met catalytic domain fusion protein) (P08581 1078-1345): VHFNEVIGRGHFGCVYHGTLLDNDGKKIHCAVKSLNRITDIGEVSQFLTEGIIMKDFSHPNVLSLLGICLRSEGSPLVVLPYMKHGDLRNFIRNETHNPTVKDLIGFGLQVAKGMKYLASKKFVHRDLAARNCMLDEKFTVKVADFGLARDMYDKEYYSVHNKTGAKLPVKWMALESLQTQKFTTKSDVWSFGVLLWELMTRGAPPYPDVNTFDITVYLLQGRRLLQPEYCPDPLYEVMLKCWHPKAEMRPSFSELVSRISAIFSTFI

| IC50 [nM] | SMILES |
| --- | --- |
| < 500 | COC1CCN(C(=O)C(C)NC(=O)c2ccc(-c3cnc4ncc(C5(c6ccc7ncccc7c6)CC5)n4c3)cc2F)C1 (single isomer, unassigned) [Example 201] |
| < 500 | N#CC1CCN(C(=O)c2ccc(-c3cnc4ncc(C5(c6ccc7ncccc7c6)CC5)n4c3)cc2)C1 (stereo in doubt) [Example 52, (3R)-1-{4-[3-(1-Quinolin-6-ylcyclopropyl)imidazo[1,2-a]pyrimidin-6-yl]benzoyl}pyrrolidine-3-carbonitrile] |
| < 500 | CNC(=O)c1ccc(-c2cnc3ncc(Oc4ccc5ncccc5c4)n3c2)cc1Cl [Example 17, 2-chloro-N-methyl-4-[3-(quinolin-6-yloxy)imidazo[1,2-a]pyrimidin-6-yl]benzamide] |
| < 500 | CNC(=O)c1ccc(-c2cnc3ncc(C4(c5ccc6ncccc6c5)CC4)n3c2)cc1F [Example 18, 2-Fluoro-N-methyl-4-[3-(1-quinolin-6-ylcyclopropyl)imidazo[1,2-a]pyrimidin-6-yl]benzamide] |
| < 500 | COc1ccc(Sc2cnc3ncc(-c4ccc(Br)cc4)cn23)cc1 [Example 19, 6-(4-bromophenyl)-3-[(4-methoxyphenyl)thio]imidazo[1,2-a]pyrimidine] |
| < 500 | COc1ccc(Sc2cnc3ncc(-c4ccc(F)cc4)nn23)cc1 [Example 20, 2-(4-fluorophenyl)-7-[(4-methoxyphenyl)thio]imidazo[1,2-b][1,2,4]triazine] |
| < 500 | CC(Oc1ccc(-c2cnc3ncc(C4(c5ccc6ncccc6c5)CC4)n3c2)cc1F)C(=O)N1CCCC1 (stereo not shown) [Example 21, 6-(1-{6-[3-Fluoro-4-(1-methyl-2-oxo-2-pyrrolidin-1-ylethoxy)phenyl]imidazo[1,2-a]pyrimidin-3-yl}cyclopropyl)quinoline] |
| < 500 | c1cnc2ccc(C3(c4cnc5ncc(-n6cccn6)cn45)CC3)cc2c1 [Example 22, 6-{1-[6-(1H-Pyrazol-1-yl)imidazo[1,2-a]pyrimidin-3-yl]cyclopropyl}quinoline] |
| < 500 | Cc1cnn(-c2cnc3ncc(C4(c5ccc6ncccc6c5)CC4)n3c2)c1 [Example 23, 6-{1-[6-(4-Methyl-1H-pyrazol-1-yl)imidazo[1,2-a]pyrimidin-3-yl]cyclopropyl}quinoline] |
| < 500 | Cc1csc(C(C)NC(=O)c2cnn(-c3cnc4ncc(C5(c6ccc7ncccc7c6)CC5)n4c3)c2)n1 (stereo not shown) [Example 25, N-[1-(4-Methyl-1,3-thiazol-2-yl)ethyl]-1-[3-(1-quinolin-6-ylcyclopropyl)imidazo[1,2-a]pyrimidin-6-yl]-1H-pyrazole-4-carboxamide] |
| < 500 | O=C(NC1CCCCC1)c1cnc2ncc(C3(c4ccc5ncccc5c4)CC3)n2c1 [Example 26, N-Cyclohexyl-3-(1-quinolin-6-ylcyclopropyl)imidazo[1,2-a]pyrimidine-6-carboxamide] |
| < 500 | O=C(NCC1CCCO1)c1cnc2ncc(C3(c4ccc5ncccc5c4)CC3)n2c1 (stereo not shown) [Example 27, 3-(1-Quinolin-6-ylcyclopropyl)-N-(tetrahydrofuran-2-ylmethyl)imidazo[1,2-a]pyrimidine-6-carboxamide] |
| < 500 | O=C(NC1CCC1)c1ccc(-c2cnc3ncc(C4(c5ccc6ncccc6c5)CC4)n3c2)cc1 [Example 28, N-Cyclobutyl-4-[3-(1-quinolin-6-ylcyclopropyl)imidazo[1,2-a]pyrimidin-6-yl]benzamide] |
| < 500 | O=C(c1ccc(-c2cnc3ncc(C4(c5ccc6ncccc6c5)CC4)n3c2)cc1)N1CCC1 [Example 29, 6-(1-{6-[4-(Azetidin-1-ylcarbonyl)phenyl]imidazo[1,2-a]pyrimidin-3-yl}cyclopropyl)quinoline] |
| < 500 | CN(C)C(=O)c1ccc(-c2cnc3ncc(C4(c5ccc6ncccc6c5)CC4)n3c2)cc1 [Example 30, N,N-Dimethyl-4-[3-(1-quinolin-6-ylcyclopropyl)imidazo[1,2-a]pyrimidin-6-yl]benzamide] |
| < 500 | O=C(NCC1CCCO1)c1ccc(-c2cnc3ncc(C4(c5ccc6ncccc6c5)CC4)n3c2)cc1 (stereo not shown) [Example 31, 4-[3-(1-Quinolin-6-ylcyclopropyl)imidazo[1,2-a]pyrimidin-6-yl]-N-(tetrahydrofuran-2-ylmethyl)benzamide] |
| < 500 | CN(C(=O)c1ccc(-c2cnc3ncc(C4(c5ccc6ncccc6c5)CC4)n3c2)cc1)C1CCN(Cc2ccccc2)C1 (stereo not shown) [Example 32, N-(1-Benzylpyrrolidin-3-yl)-N-methyl-4-[3-(1-quinolin-6-ylcyclopropyl)imidazo[1,2-a]pyrimidin-6-yl]benzamide] |
| < 500 | O=C(NC1CCN(c2ccccn2)CC1)c1ccc(-c2cnc3ncc(C4(c5ccc6ncccc6c5)CC4)n3c2)cc1 [Example 33, N-(1-Pyridin-2-ylpiperidin-4-yl)-4-[3-(1-quinolin-6-ylcyclopropyl)imidazo[1,2-a]pyrimidin-6-yl]benzamide] |
| < 500 | CC(NC(=O)c1ccc(-c2cnc3ncc(C4(c5ccc6ncccc6c5)CC4)n3c2)cc1)c1ccccn1 (stereo not shown) [Example 34, N-(1-Pyridin-2-ylethyl)-4-[3-(1-quinolin-6-ylcyclopropyl)imidazo[1,2-a]pyrimidin-6-yl]benzamide] |
| < 500 | O=C(c1ccc(-c2cnc3ncc(C4(c5ccc6ncccc6c5)CC4)n3c2)cc1)N1CC[C@H](F)C1 [Example 35, 6-{1-[6-(4-[(3S)-3-Fluoropyrrolidin-1-yl]carbonylphenyl)imidazo[1,2-a]pyrimidin-3-yl]cyclopropyl}quinoline] |
| < 500 | COCC1(NC(=O)c2ccc(-c3cnc4ncc(C5(c6ccc7ncccc7c6)CC5)n4c3)cc2)CCC1 [Example 36, N-[1-(Methoxymethyl)cyclobutyl]-4-[3-(1-quinolin-6-ylcyclopropyl)imidazo[1,2-a]pyrimidin-6-yl]benzamide] |

Further lines, the compound ahead of its results:

| SMILES | IC50 [nM] |
| --- | --- |
| COc1ccc(Cc2cnc3ncc(-c4ccc(F)cc4)nn23)cc1 [Example 1] | < 500 |
| COc1ccc(C2(c3cnc4ncc(-c5ccc(F)cc5)nn34)CC2)cc1 [Example 2, 2-(4-Fluorophenyl)-7-[1-(4-methoxyphenyl)cyclopropyl]imidazo[1,2-b]-[1,2,4]-triazine] | < 500 |
| Fc1ccc(-c2cnc3ncc(C4(c5ccc6ncccc6c5)CC4)n3n2)cc1 [Example 3, 6-(1-(2-(4-Fluorophenyl)imidazo[1,2-b][1,2,4]-triazin-7-yl)cyclopropyl)quinoline] | < 500 |
| COc1ccc(Cc2cnc3ncc(-c4ccc(F)cc4)cn23)cc1 [Example 4, 6-(4-Fluorophenyl)-3-(4-methoxybenzyl)imidazo[1,2-a]pyrimidine] | < 500 |
| COc1ccc(C2(c3cnc4ncc(-c5ccc(F)cc5)cn34)CC2)cc1 [Example 5, 6-(4-Fluorophenyl)-3-(1-(4-methoxyphenyl)cyclopropyl)imidazo[1,2-a]pyrimidine] | < 500 |
| Fc1ccc(-c2cnc3ncc(C4(c5ccc6ncccc6c5)CC4)n3c2)cc1 [Example 6, 6-(1-(6-(4-Fluorophenyl)imidazo[1,2-a]pyrimidin-3-yl)cyclopropyl)quinoline] | < 500 |
| COc1ccc(Sc2cnc3ncc(-c4ccc(Br)c(F)c4)nn23)cc1 [Example 8, 2-(4-Bromo-3-fluorophenyl)-7-[(4-methoxyphenyl)thio]imidazo[1,2-b][1,2,4]triazine] | < 500 |
| CNC(=O)c1ccc(-c2cnc3ncc(Sc4ccc(OC)cc4)n3c2)cc1F [Example 9, 2-Fluoro-4-(3-[(4-methoxyphenyl)thio]imidazo[1,2-a]pyrimidin-6-yl)-N-methylbenzamide] | < 500 |
| CNC(=O)c1ccc(-c2cnc3ncc(Sc4ccc(OC)cc4)n3c2)cc1Cl [Example 10, 2-chloro-4-3-[(4-methoxyphenyl)thio]imidazo[1,2-a]pyrimidin-6-yl-N-methylbenzamide] | < 500 |
| CNC(=O)c1ccc(-c2cnc3ncc(Sc4ccc5ncccc5c4)n3c2)cc1F [Example 11, 2-Fluoro-N-methyl-4-[3-(quinolin-6-ylthio)imidazo[1,2-a]pyrimidin-6-yl]benzamide] | < 500 |
| CNC(=O)c1ccc(-c2cnc3ncc(Sc4ccc5ncccc5c4)n3c2)cc1Cl [Example 12, 2-chloro-N-methyl-4-[3-(quinolin-6-ylthio)imidazo[1,2-a]pyrimidin-6-yl]benzamide] | < 500 |
| COC(=O)c1ccc(-c2cnc3ncc(Sc4ccc5ncccc5c4)n3n2)cc1F [Example 13, Methyl 2-fluoro-4-[7-(quinolin-6-ylthio)imidazo[1,2-b][1,2,3]triazin-2-yl]benzoate] | < 500 |
| COc1ccc(Oc2cnc3ncc(-c4ccc(Br)c(F)c4)nn23)cc1 [Example 14, 2-(4-Bromo-3-fluorophenyl)-7-(4-methoxyphenoxy)imidazo[1,2-b][1,2,4]triazine] | < 500 |
| COc1ccc(Oc2cnc3ncc(-n4cc(C)cn4)cn23)cc1 [Example 15, 3-(4-Methoxyphenoxy)-6-(4-methyl-1H-pyrazol-1-yl)imidazo[1,2-a]pyrimidine] | < 500 |
| COc1ccc(Oc2cnc3ncc(-c4ccc(Br)cc4)cn23)cc1 [Example 16, 6-(4-Bromophenyl)-3-(4-methoxyphenoxy)imidazo[1,2-a]pyrimidine] | < 3000 |
| CN(C)C(=O)c1cnn(-c2cnc3ncc(C4(c5ccc6ncccc6c5)CC4)n3c2)c1 [Example 24, N,N-Dimethyl-1-[3-(1-quinolin-6-ylcyclopropyl)imidazo[1,2-a]pyrimidin-6-yl]-1H-pyrazole-4-carboxamide] | < 500 |
